Consider one compound from patent publication US11554182B2, “Macrocyclic complexes of alpha-emitting radionuclides and their use in targeted radiotherapy of cancer” (CORNELL UNIVERSITY, priority 2017, dated 2023).

A short description of series [1]: La^3+ titration with macropa (UV, pH 7.4). Type of series: physicochemical. The settings on record: pH 7.4, MOPS buffer, RT. The method, then: (§1) La^3+ and Lu^3+ Titrations with Macropa. The pH of a 10 mM 3-(N-morpholino)propanesulfonic acid (MOPS) buffer was adjusted to 7.4 using aqueous NMe4OH. The ionic strength was set at 100 mM using NMe4Cl. Stock solutions of LaCl3.6.8H2O (40 mM) and LuCl3.6H2O (21 mM) were prepared in 1 mM HCl. A stock solution of H2macropa.2HCl.4H2O (8.8 mM) was prepared in MOPS buffer. From these stock solutions, titration solutions containing macropa (100 μM) and either LaCl3 or LuCl3 were prepared in MOPS. Each metal ion titration was carried out at RT by adding 5-10 μL aliquots of titrant to a cuvette containing 3000 μL of macropa (100 μM) in MOPS. Each sample was allowed to equilibrate for 5 min following every addition before a spectrum was acquired. Complexation of the metal ion was monitored by the decrease in absorbance at 268 nm, the λmax of macropa. Titrant was added until no further spectral changes were detected.

Series [2] in a line: Lu^3+ titration with macropa (UV, pH 7.4). To be noted: pH 7.4, MOPS buffer, RT. Format: physicochemical. The method, then: as §1
The conditions of series [3]: Lu^3+ complex of macropa; cited from earlier work.
For series [4] the following is noted: La^3+ complex of macropa; cited from earlier work.

Each structure is given as a SMILES string.

As to `O=C(O)c1cccc(CN2CCOCCOCCN(Cc3cccc(C(=O)O)n3)CCOCCOCC2)n1` [macropa, N,N′-bis[(6-carboxy-2-pyridil)methyl]-4,13-diaza-18-crown-6], the “affinity of La^3+ for macropa by titration” value in series [1] was “high affinity”. Also, the “affinity of Lu^3+ for macropa by titration” value in series [2] is recorded as “high affinity”. Further, the “stability constant log KLuL” value in series [3] was 8.25. Further, the “stability constant log KLaL” value in series [4] is recorded as 14.99.
